From US9528993B2, “Agents and methods related to screening for resistance to DR5 and reducing resistance to DR5 agonists” (The UAB Research Foundation, priority 2005, dated 2016)
{Fl} = fluorescein label

What was measured:
panel of tumor cells = assay: TRA-8-induced apoptosis in panel of tumor cells after DDX3 sRNAi oligo (ATPLite); assay type: cell-based; conditions: including some spontaneous resistant cells; various concentrations of TRA-8 overnight
Protocol: (§1) Cytotoxicity analysis of tumor cell susceptibility to TRA-8, 2E12, and TRAIL-mediated apoptosis. Cells (1,000 cells per well) were seeded into 96-well plates in triplicate with eight concentrations (double serial dilutions from 1000 ng/ml) of TRA-8, 2E12, or TRAIL. Cell viability was determined after overnight culture using an ATPLITE™ assay according to the manufacturer's instructions (Packard Instruments, Meriden, Conn.). The results are presented as the precentage of viable cells in treated wells compared to medium control wells.
(§2) They were then cloned into the BLOCK-iT U6 entry vector. The shRNA is driven by the U6 promoter and can be transiently expressed in most dividing or nondividing mammalian cell types. Resistant cells were transfected with RNAi used LIPOFECTAMINE 2000 (Invitrogen) for the RNAi response. The decreased DDX3 expression was determined by Western blot analysis using anti-DDX3 antibody 36 hours after transfection. Once decreased DDX3 expression was achieved, the siRNA oligo was synthesized (Target sequence: […] (SEQ ID NO:27): Sense RNA 5′-Fl-[…] (Fl-SEQ ID NO:27) (Fl=fluorescein); Anti-senseRNA 5′-[…]-3′ (SEQ ID NO:28), and RNAi control oligo (RI-010-DP) was purchased from Molecula (Columbia, Md.).

[1] = system: DDX3 in panel of tumor cells; assay: DDX3 expression in panel of tumor cells after DDX3 sRNAi oligo (Western blot); assay type: cell-based; conditions: 48 hours after transfection
Text: as §2, with “The decreased DDX3 expression was determined by Western blot analysis using anti-DDX3 antibody 36 hours after transfection.” left out

[2] = system: human breast cancer cell line, MDA-231; assay: Cytotoxicity analysis (ATPLITE cell viability), MDA-231; assay type: cell-based; conditions: for TRA-8-mediated apoptosis of induced resistant cells in presence of chemotherapeutic agent: MDA-231 resistant cells, 0.1 μM taxol, 1 μM Adriamycin, 100 μM cisplatin or 5 μM BisVIII
Protocol: as §1, with “Cells” for “Cytotoxicity analysis of tumor cell susceptibility to TRA-8, 2E12, and TRAIL-mediated apoptosis. Cells”, “plate” for “plates”, “ATPLITE” for “an ATPLITE™”, “manufacture's” for “manufacturer's”
(§3) Cells (5×10^5/ml) were incubated with a starting dose of 1 ng/ml TRA-8 for two days. Cells were split with fresh medium and incubated with a double dose of TRA-8 every two days until TRA-8 dose reached 2,000 ng/ml. At each treatment cycle, the cell viability of non-induced (parental) and induced cells treated with an inducing dose of TRA-8 was determined by ATPLITE assay.

[3] = system: human ovarian cancer cell line, UL-3C; assay: Cytotoxicity analysis (ATPLITE cell viability), UL-3C; assay type: cell-based; conditions: for TRA-8-mediated apoptosis of induced resistant cells in presence of chemotherapeutic agent: UL-3C resistant cells, 0.1 μM taxol, 1 μM Adriamycin, 100 μM cisplatin or 5 μM BisVIII
Protocol: as §1, with “Cells” for “Cytotoxicity analysis of tumor cell susceptibility to TRA-8, 2E12, and TRAIL-mediated apoptosis. Cells”, “plate” for “plates”, “ATPLITE” for “an ATPLITE™”, “manufacture's” for “manufacturer's”
as §3

[4] = system: caspase activation and PARP cleavage in MDA231 cells; assay: Western blot of caspase cascade activation in MDA231 cells; assay type: cell-based, human; conditions: MDA-231 resistant cells, single agent alone at 4 hours (1,000 ng/ml TRA-8 or 1 μM Adriamycin)
Protocol: Tumor cells (3×10^6) were washed twice with cold PBS and lysed with 300 μl lysis buffer containing 10 mM Tris-HCl (pH 7.6), 150 mM NaCl, 0.5 mM EDTA, 1 mM EGTA, 0.1% SDS, 1 mM sodium orthovanadate, and a mixture of protease inhibitors (1 mM phenylmethylsulfonyl fluoride, 1 μg/ml pepstatin A, 2 μg/ml aprotinin). Lysates were sonicated for 10 seconds, and centrifuged for 20 minutes at 12,000 g. The cell lysates with equal amount of total proteins were boiled for 5 minutes with SDS-PAGE sample buffer. Total cell lysates were separated in 8%, 10%, or 12% SDS-PAGE, and electrophoretically transferred to nitrocellulose membrane. The blots were blocked with 5% nonfat dry milk in TBST buffer (20 mM Tris-HCl (pH 7.4), 500 mM NaCl, and 0.1% Tween 20) and incubated with primary antibody in blocking buffer at 4° C. overnight. The blots were washed three times with TBST and probed with HRP-conjugated secondary antibodies for one hour at room temperature. After washing four times with TBST, the probed proteins were visualized using the ECL Western blotting detection system (Amersham Biosciences, Piscataway, N.J.) according to the manufacturer's instructions.

GSK-3 [5] = conditions: cited from earlier work
GSK-3 [6] = conditions: cited from earlier work; remark: listed apart in the source
Cdk5/p35 = Cdk5/p35 (Homo sapiens, UniProt Q00535); conditions: cited from earlier work
Cdk1/B = conditions: cited from earlier work

Cdk5/p35, sequence (Q00535 whole entry, species assumed): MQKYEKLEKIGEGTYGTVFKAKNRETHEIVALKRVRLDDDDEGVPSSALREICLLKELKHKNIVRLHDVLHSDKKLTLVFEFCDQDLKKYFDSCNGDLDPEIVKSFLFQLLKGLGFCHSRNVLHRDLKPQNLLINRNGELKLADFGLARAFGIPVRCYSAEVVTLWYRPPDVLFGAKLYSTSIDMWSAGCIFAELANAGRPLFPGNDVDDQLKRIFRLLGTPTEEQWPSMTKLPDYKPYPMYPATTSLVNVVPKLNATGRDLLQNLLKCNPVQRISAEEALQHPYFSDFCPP
Cdk5/p35, sequence (Q15078 whole entry partner, species assumed): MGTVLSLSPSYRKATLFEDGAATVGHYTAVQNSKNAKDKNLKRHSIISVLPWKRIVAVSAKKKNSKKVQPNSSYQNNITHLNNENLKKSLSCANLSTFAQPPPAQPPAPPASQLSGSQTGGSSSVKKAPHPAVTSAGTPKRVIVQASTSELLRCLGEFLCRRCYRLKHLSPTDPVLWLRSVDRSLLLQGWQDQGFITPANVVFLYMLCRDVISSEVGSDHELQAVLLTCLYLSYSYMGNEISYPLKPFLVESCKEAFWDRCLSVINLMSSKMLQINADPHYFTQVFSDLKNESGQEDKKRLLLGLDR

DDX3 RNAi: synthesized siRNA oligo, target sequence GGAGAAATTATCATGGGAAAC (SEQ ID NO:27), antisense SEQ ID NO:28 (sense GGAGAAAUUAUCAUGGGAAAC; antisense GUUUCCCAUGAUAAUUUCUCC; sense: RNA, 5' {Fl}, backbone not given here; antisense: RNA, backbone not given here)
TRA-8-induced apoptosis (panel of tumor cells): enhanced the TRA8-induced apoptosis | amount of endogenous DDX3 [1]: reduced the amount of endogenous DDX3

TRAIL: Recombinant soluble TRAIL purchased from Alexis Biochemicals
susceptibility of TRA-8 resistant cells to induced apoptosis ([2]; MDA-231R cells vs parental): still susceptible | susceptibility to apoptosis, in vitro cytotoxicity assay ([2]; parental MDA-231 cells): susceptible to apoptosis | susceptibility of TRA-8 resistant cells to induced apoptosis ([3]; UL-3CR cells vs parental): still susceptible | susceptibility to apoptosis, in vitro cytotoxicity assay ([3]; parental UL-3C cells): susceptible to apoptosis

COc1cccc2c1C(=O)c1c(O)c3c(c(O)c1C2=O)C[C@@](O)(C(=O)CO)C[C@@H]3O[C@H]1C[C@H](N)[C@H](O)[C@H](C)O1 [Adriamycin]
TRA-8-mediated apoptosis of induced resistant cells in presence of chemotherapeutic agent [2]: TRA-8 dose-dependent response was restored | activation of caspases 2, 3, 8, 9 [4]: did not induce any significant activation | TRA-8-mediated apoptosis of induced resistant cells in presence of chemotherapeutic agent [3]: TRA-8 dose-dependent response was restored

CC(C)NCC(O)c1ccc(O)c(O)c1 (stereo not shown) [Isoproterenol]
decrease of GSK-3 activity (GSK-3 [5]): approximately 50%

insulin: comparator for decrease of GSK-3 activity
decrease of GSK-3 activity (GSK-3 [5]): approximately 50%

CCCCc1c(-c2ccc(OC)cc2)[nH]c2nccnc12 [Aloisine, 7-n-Butyl-6-(4-methoxyphenyl)[5H]pyrrolo[2,3-b]pyrazine]
IC50 (GSK-3 [6]): 920 nM | IC50 (Cdk5/p35): 1500 nM | IC50 (Cdk1/B): 700 nM

Cn1cc(C2=C(c3ccc(Cl)cc3Cl)C(=O)NC2=O)c2ccccc21 [SB216763]
inhibition of GSK-3 (GSK-3 [6]): potent

N.N.[Cl][Pt][Cl] [Cisplatin]
TRA-8-mediated apoptosis of induced resistant cells in presence of chemotherapeutic agent [2]: TRA-8 dose-dependent response was restored | TRA-8-mediated apoptosis of induced resistant cells in presence of chemotherapeutic agent [3]: TRA-8 dose-dependent response was restored

Cn1cc(C2=C(c3cn(CCCN)c4ccccc34)C(=O)NC2=O)c2ccccc21 [Bisindolymaleimide VIII]
TRA-8-mediated apoptosis of induced resistant cells in presence of chemotherapeutic agent [2]: TRA-8 dose-dependent response was restored | TRA-8-mediated apoptosis of induced resistant cells in presence of chemotherapeutic agent [3]: TRA-8 dose-dependent response was restored

CC(=O)O[C@H]1C(=O)[C@@]2(C)[C@H]([C@H](OC(=O)c3ccccc3)[C@]3(O)C[C@H](OC(=O)[C@H](O)[C@@H](NC(=O)c4ccccc4)c4ccccc4)C(C)=C1C3(C)C)[C@]1(OC(C)=O)CO[C@@H]1C[C@@H]2O [Taxol]
TRA-8-mediated apoptosis of induced resistant cells in presence of chemotherapeutic agent [2]: TRA-8 dose-dependent response was restored | TRA-8-mediated apoptosis of induced resistant cells in presence of chemotherapeutic agent [3]: TRA-8 dose-dependent response was restored

[Be+2] [Beryllium ions]
inhibition of GSK-3 (GSK-3 [6]): micromolar range
